Experiments:
Assay type in all cases: in vivo
[1] = test system: MATCH = Matricaria chamomilla; assay: Greenhouse trial, pre-emergence (PE) action against weeds (test method 1); conditions: PE application; g of AS/ha: (A) 90, (B) 1200, (A)+(B) 90 + 1200
Description: (§1) In the standard design of the test, seeds of various broad-leaved weed and weed grass biotypes (origins) were sown in a 8-13 cm diameter pot filled with natural soil of a standard field soil (loamy silt; non-sterile) and covered with a covering soil layer of about 1 cm. The pots were then cultivated in a greenhouse (12-16 h of light, temperature day 20-22° C., night 15-18° C.) until the time of application. The pots were treated on a laboratory track sprayer with spray liquors comprising the compositions according to the invention, mixtures of the prior art or components used individually. Application of the active compounds or active compound combinations formulated as WG, WP, EC or otherwise was carried out at the appropriate growth stages of the plants. The application rate for the spray application was 100-600 l of water/ha. After the treatment, the plants were returned to the greenhouses.
(§2) About 3 weeks after the application, the soil action or/and foliar action was assessed visually according to a scale of 0-100% in comparison to an untreated comparative group: 0%=no noticeable effect compared to the untreated comparative group; 100%=full effect compared to the untreated comparative group.
(§3) (notes: the term “seeds” also includes vegetative propagation forms such as, for example, rhizome pieces; abbreviations used: h light=hours of illumination, g of AS/ha=gram of active substance per hectare, l/ha=liter per hectare, S=sensitive, R=resistant) • 1. Pre-emergence action against weeds: seeds of various broad-leaved weed and weed grass biotypes (origins) were sown in a 8-13 cm diameter pot filled with natural soil of a standard field soil (loamy silt; non-sterile) and covered with a covering soil layer of about 1 cm. The pots were then cultivated in a greenhouse (12-16 h of light, temperature day 20-22° C., night 15-18° C.) until the time of application. The pots were treated at the BBCH stage 00-10 of the seeds/plants on a laboratory track sprayer with spray liquors comprising the compositions according to the invention, mixtures or components used individually, as WG, WP, EC or other formulations. The application rate for the spray application was 100-600 l of water/ha. After the treatment, the plants were returned to the greenhouses and, when required, treated with fertilizer and watered. • 2. Post-emergence action against weeds: seeds of various broad-leaved weed and weed grass biotypes (origins) were sown in a 8-13 cm diameter pot filled with natural soil of a standard field soil (loamy silt; non-sterile) and covered with a covering soil layer of about 1 cm. The pots were then cultivated in a greenhouse (12-16 h of light, temperature day 20-22° C., night 15-18° C.) until the time of application. […]

[2] = test system: AVEFA = Avena fatua; assay: as above; conditions: PE application; g of AS/ha: (A) 90, (B) 1200, (A)+(B) 90 + 1200
Description: as §1, §2, §3

[3] = test system: MATCH = Matricaria chamomilla; assay: Greenhouse trial, PE application with different irrigation variations (test method 6); conditions: g of AS/ha: (A) 120, (B) 1200, (A)+(B) 120 + 1200
Description: as §1, §2
(§4) (notes: the term “seeds” also includes vegetative propagation forms such as, for example, rhizome pieces; abbreviations used: h light=hours of illumination, g of AS/ha=gram of active substance per hectare, l/ha=liter per hectare, S=sensitive, R=resistant) • 1. Pre-emergence action against weeds: seeds of various broad-leaved weed and weed grass biotypes (origins) were sown in a 8-13 cm diameter pot filled with natural soil of a standard field soil (loamy silt; non-sterile) and covered with a covering soil layer of about 1 cm. The pots were then cultivated in a greenhouse (12-16 h of light, temperature day 20-22° C., night 15-18° C.) until the time of application. The pots were treated at the BBCH stage 00-10 of the seeds/plants on a laboratory track sprayer with spray liquors comprising the compositions according to the invention, mixtures or components used individually, as WG, WP, EC or other formulations. The application rate for the spray application was 100-600 l of water/ha. After the treatment, the plants were returned to the greenhouses and, when required, treated with fertilizer and watered. • 2. Post-emergence action against weeds: seeds of various broad-leaved weed and weed grass biotypes (origins) were sown in a 8-13 cm diameter pot filled with natural soil of a standard field soil (loamy silt; non-sterile) and covered with a covering soil layer of about 1 cm. The pots were then cultivated in a greenhouse (12-16 h of light, temperature day 20-22° C., night 15-18° C.) until the time of application. The pots were treated at various BBCH stages between 11-25 of the seeds/plants, i.e. generally between two to three weeks after the start of the cultivation, on a laboratory track sprayer with spray liquors comprising the compositions according to the invention, mixtures or components used individually, as WG, WP, EC or other formulations. The application rate for the spray application was 100-600 l of water/ha. After the treatment, the plants were returned to the greenhouses and, when required, treated with fertilizer and watered. • 3. Selective pre-emergence action: seeds of various crop species (origins) were sown in a 8-13 cm diameter pot filled with natural soil of a standard field soil (loamy silt; non-sterile) and covered with a covering soil layer of about 1 cm. The pots were then cultivated in a greenhouse (12-16 h of light, temperature day 20-22° C., night 15-18° C.) until the time of application. The pots were treated at the BBCH stage 00-10 of the seeds/plants on a laboratory track sprayer with spray liquors comprising the compositions according to the invention, mixtures or components used individually, as WG, WP, EC or other formulations. The application rate for the spray application was 100-600 l of water/ha. […]

[4] = test system: AVEFA = Avena fatua; assay: as above; conditions: g of AS/ha: (A) 120, (B) 1200, (A)+(B) 120 + 1200
Description: as §1, §2, §4

[5] = test system: LOLPE = Lolium perenne; assay: Greenhouse trial, PE application at different sowing depths (test method 9); conditions: g of AS/ha: (A) 120, (B) 1200, (A)+(B) 120 + 1200
Description: as §1, §2, §4

[6] = test system: STEME = Stellaria media; assay: as above; conditions: g of AS/ha: (A) 120, (B) 1200, (A)+(B) 120 + 1200
Description: as §1, §2, §4

[7] = test system: VIOAR = Viola arvensis; assay: Greenhouse trial, post-emergence (PO) action against weeds (test method 2); conditions: PO application; g of AS/ha: (A) 120, (B) 1200, (A)+(B) 120 + 1200; about 3 weeks after application
Description: as §1, §2, §4

[8] = test system: LOLPE = Lolium perenne; assay: as above; conditions: PO application; g of AS/ha: (A) 120, (B) 1200, (A)+(B) 120 + 1200; about 3 weeks after application
Description: as §1, §2, §4

[9] = test system: STEME = Stellaria media; assay: as above; conditions: PO application; g of AS/ha: (A) 120, (B) 1200, (A)+(B) 120 + 1200; about 3 weeks after application
Description: as §1, §2, §4

[10] = test system: MATCH sensitive (Matricaria chamomilla); assay: Greenhouse trial, PE application on resistant biotypes (test method 8); conditions: sensitive biotype, g of AS/ha: (A) 90, (B) 1200, (A)+(B) 90 + 1200, (C) 10
Description: as §1, §2, §4

[11] = test system: ALOMY resistant (Alopecurus myosuroides); assay: as above; conditions: resistant biotype, g of AS/ha: (A) 90, (B) 1200, (A)+(B) 90 + 1200
Description: as §1, §2, §4

[12] = test system: ALOMY sensitive (Alopecurus myosuroides); assay: as above; conditions: sensitive biotype, g of AS/ha: (A) 90, (B) 1200, (A)+(B) 90 + 1200
Description: as §1, §2, §4

[13] = test system: MATCH resistant (Matricaria chamomilla); assay: as above; conditions: resistant biotype, g of AS/ha: (A) 90, (B) 1200, (A)+(B) 90 + 1200, (C) 10
Description: as §1, §2, §4

[14] = test system: STEME = Stellaria media; assay: Greenhouse trial, activity with different soil types (test method 7); conditions: g of AS/ha: (A) 120, (B) 1200, (A)+(B) 120 + 1200
Description: as §1, §2, §4

[15] = test system: MATCH = Matricaria chamomilla; assay: Greenhouse trial, pre-sowing application 7 days prior to sowing (test method 5); conditions: g of AS/ha: (A) 90, (B) 1200, (A)+(B) 90 + 1200
Description: as §1, §2
(§5) (notes: the term “seeds” also includes vegetative propagation forms such as, for example, rhizome pieces; abbreviations used: h light=hours of illumination, g of AS/ha=gram of active substance per hectare, l/ha=liter per hectare, S=sensitive, R=resistant) • 1. Pre-emergence action against weeds: seeds of various broad-leaved weed and weed grass biotypes (origins) were sown in a 8-13 cm diameter pot filled with natural soil of a standard field soil (loamy silt; non-sterile) and covered with a covering soil layer of about 1 cm. The pots were then cultivated in a greenhouse (12-16 h of light, temperature day 20-22° C., night 15-18° C.) until the time of application. The pots were treated at the BBCH stage 00-10 of the seeds/plants on a laboratory track sprayer with spray liquors comprising the compositions according to the invention, mixtures or components used individually, as WG, WP, EC or other formulations. The application rate for the spray application was 100-600 l of water/ha. After the treatment, the plants were returned to the greenhouses and, when required, treated with fertilizer and watered. • 2. Post-emergence action against weeds: seeds of various broad-leaved weed and weed grass biotypes (origins) were sown in a 8-13 cm diameter pot filled with natural soil of a standard field soil (loamy silt; non-sterile) and covered with a covering soil layer of about 1 cm. The pots were then cultivated in a greenhouse (12-16 h of light, temperature day 20-22° C., night 15-18° C.) until the time of application. The pots were treated at various BBCH stages between 11-25 of the seeds/plants, i.e. generally between two to three weeks after the start of the cultivation, on a laboratory track sprayer with spray liquors comprising the compositions according to the invention, mixtures or components used individually, as WG, WP, EC or other formulations. The application rate for the spray application was 100-600 l of water/ha. After the treatment, the plants were returned to the greenhouses and, when required, treated with fertilizer and watered. • 3. […]

[16] = test system: AVEFA = Avena fatua; assay: as above; conditions: g of AS/ha: (A) 90, (B) 1200, (A)+(B) 90 + 1200
Description: as §1, §2, §5

SMILES: CC(C)N(C(=O)COc1nnc(C(F)(F)F)s1)c1ccc(F)cc1 [(A) flufenacet, N-(4-fluorophenyl)-N-(1-methylethyl)-2-[[5-(trifluoromethyl)-1,3,4-thiadiazol-2-yl]oxy]acetamide]
- activity MATCH (visual assessment, scale 0-100% vs untreated) [1]: 15%
- activity AVEFA (visual assessment, scale 0-100% vs untreated) [2]: 85%
- activity MATCH (visual assessment, scale 0-100% vs untreated) ([3]; irrigation from above): 97%
- activity MATCH (visual assessment, scale 0-100% vs untreated) ([3]; irrigation from below): 35%
- activity AVEFA (visual assessment, scale 0-100% vs untreated) ([4]; irrigation from above): 85%
- activity AVEFA (visual assessment, scale 0-100% vs untreated) ([4]; irrigation from below): 50%
- activity LOLPE, sowing depth 5 mm (visual assessment, scale 0-100% vs untreated) ([5]; sowing depth 5 mm): 80%
- activity LOLPE, sowing depth 20 mm (visual assessment, scale 0-100% vs untreated) ([5]; sowing depth 20 mm): 90%
- activity STEME, sowing depth 5 mm (visual assessment, scale 0-100% vs untreated) ([6]; sowing depth 5 mm): 0%
- activity STEME, sowing depth 20 mm (visual assessment, scale 0-100% vs untreated) ([6]; sowing depth 20 mm): 20%
- activity VIOAR (visual assessment, scale 0-100% vs untreated) [7]: 40%
- activity LOLPE (visual assessment, scale 0-100% vs untreated) [8]: 65%
- activity STEME (visual assessment, scale 0-100% vs untreated) [9]: 30%
- activity MATCH sensitive (visual assessment, scale 0-100% vs untreated) [10]: 30%
- activity ALOMY resistant (visual assessment, scale 0-100% vs untreated) [11]: 68%
- activity ALOMY sensitive (visual assessment, scale 0-100% vs untreated) [12]: 80%
- activity MATCH resistant (visual assessment, scale 0-100% vs untreated) [13]: 30%
- activity STEME IU soil (visual assessment, scale 0-100% vs untreated) ([14]; IU soil (loamy silt, standard field soil)): 89%
- activity STEME IU/EC73 soil (visual assessment, scale 0-100% vs untreated) ([14]; IU/EC73 soil (heavier soil, higher organic substance)): 0%
- Difference of the soil types Δ^D, STEME ([14]; IU/EC73 soil versus IU soil): Δ^D −89%
- activity MATCH (visual assessment, scale 0-100% vs untreated) [15]: 93%
- activity AVEFA (visual assessment, scale 0-100% vs untreated) [16]: 70%

SMILES: COc1nc(C)nc(NC(=O)NS(=O)(=O)c2cc(I)ccc2C(=O)O)n1 [(C) iodosulfuron, iodosulfuron]
- activity MATCH sensitive (visual assessment, scale 0-100% vs untreated) [10]: 100%
- activity MATCH resistant (visual assessment, scale 0-100% vs untreated) [13]: 60%
